Measurements reported in ChEMBL document CHEMBL5230154, “Chemical probe of AHL modulators on quorum sensing in Gram-Negative Bacteria and as antiproliferative agents: A review” (Eur J Med Chem, 2021).

How the values were obtained:
Escherichia coli [1] = experiment: Inhibition of Escherichia coli MT102 harbouring pJBA132 expressing Gfp assessed as inhibition of GFP fluorescence expression at 125 uM incubated for 15 hrs by fluorescence microplate reader analysis
Escherichia coli [2] = experiment: Inhibition of Escherichia coli MT102 harbouring pJBA132 expressing Gfp assessed as inhibition of GFP fluorescence expression at 250 uM incubated for 15 hrs by fluorescence microplate reader analysis
Escherichia coli [3] = experiment: Inhibition of Escherichia coli MT102 harbouring pJBA132 expressing Gfp assessed as inhibition of GFP fluorescence expression at 62.5 uM incubated for 15 hrs by fluorescence microplate reader analysis
Pseudomonas aeruginosa [4] = experiment: Inhibition of Pseudomonas aeruginosa MH602 harboring PlasB::gfp(ASV) reporter assessed as decrease in GFP expression at 250 uM incubated for 22 hrs by fluorescence microplate reader analysis
[5] = Antagonist activity against quorum sensing system in Pseudomonas aeruginosa PAO1 transfected with lasB-lacZ reporter gene assessed as inhibition of beta-galactosidase activity incubated for 24 hrs by elastin-Congo red assay
[6] = Antagonist activity against quorum sensing system in Pseudomonas aeruginosa PAO1 transfected with rhlA-lacZ reporter gene assessed as inhibition of beta-galactosidase activity incubated for 24 hrs by elastin-Congo red assay
[7] = Inhibition of quorum sensing system in Pseudomonas aeruginosa PAO1 assessed as inhibition of pqsR expression incubated for 4 hrs by RT-PCR analysis
Pseudomonas aeruginosa [8] = experiment: Anti-motility activity against Pseudomonas aeruginosa PAO1 NCTC 10332 assessed as reduction in swimming at 50 uM and measured after 18 hr; type: functional; design: scale not given: the % may be the effect or the level left
Pseudomonas aeruginosa [9] = experiment: Antibiofilm activity against Pseudomonas aeruginosa PAO1 NCTC 10332 assessed as inhibition of biofilm formation incubated for 24 hrs by crystal violet staining based assay; type: functional, organism-based; settings: PAO1 NCTC 10332, 24 h
[10] = Inhibition of quorum sensing system in Pseudomonas aeruginosa PAO1 assessed as inhibition of RhlR expression incubated for 4 hrs by RT-PCR analysis
Pseudomonas aeruginosa [11] = experiment: Anti-motility activity against Pseudomonas aeruginosa PAO1 NCTC 10332 assessed as reduction in swarming at 50 uM and measured after 16 hr by swarming assay; type: functional; design: scale not given: the % may be the effect or the level left
[12] = Inhibition of quorum sensing system in Pseudomonas aeruginosa PA14 assessed as inhibition of pyocyanin production by UV-vis spectrophotometric assay
Pseudomonas aeruginosa [13] = experiment: Inhibition of quorum sensing system in Pseudomonas aeruginosa MH602 expressing PlasB::gfp assessed as inhibition of GFP fluorescence expression at 250 uM incubated for 15 hrs by fluorescence microplate reader analysis
Pseudomonas aeruginosa [14] = experiment: Inhibition of quorum sensing system in Pseudomonas aeruginosa MH602 expressing PlasB::gfp assessed as inhibition of GFP fluorescence expression at 62.5 uM incubated for 15 hrs by fluorescence microplate reader analysis
[15] = Inhibition of quorum sensing system in Pseudomonas aeruginosa PAO1 assessed as decrease in lasA expression at 15 uM incubated for 12 hrs by real-time fluorescent quantitative PCR analysis
[16] = Inhibition of quorum sensing system in Pseudomonas aeruginosa PAO1 assessed as decrease in lasI expression at 15 uM incubated for 12 hrs by real-time fluorescent quantitative PCR analysis
Pseudomonas aeruginosa [17] = experiment: Inhibition of biofilm formation in Pseudomonas aeruginosa PAO1 incubated for 12 hrs by crystal violet staining based analysis; type: functional
[18] = Inhibition of quorum sensing system in Pseudomonas aeruginosa PAO1 assessed as inhibition of pyocyanin production at 15 uM incubated for 12 hrs by spectrophotometric assay
[19] = Inhibition of quorum sensing system in Pseudomonas aeruginosa PAO1 assessed as decrease in pqsR expression at 15 uM incubated for 12 hrs by real-time fluorescent quantitative PCR analysis
[20] = Inhibition of quorum sensing system in Pseudomonas aeruginosa PAO1 assessed as inhibition of rhamnolipid production at 15 uM incubated for 12 hrs by spectrophotometric assay
[21] = Inhibition of quorum sensing system in Pseudomonas aeruginosa PAO1 assessed as inhibition of elastase production at 15 uM incubated for 12 hrs by Congo red dye based spectrophotometric assay
[22] = Inhibition of quorum sensing system in Pseudomonas aeruginosa PAO1 assessed as decrease in rhlR expression at 15 uM incubated for 12 hrs by real-time fluorescent quantitative PCR analysis
[23] = Inhibition of quorum sensing system in Pseudomonas aeruginosa PAO1 assessed as decrease in pqsA expression at 15 uM incubated for 12 hrs by real-time fluorescent quantitative PCR analysis

## O=C1C(=O)N(C(=O)CCl)c2ccc([N+](=O)[O-])cc21
Escherichia coli [1]
  inhibition: 60.8%
Escherichia coli [2]
  inhibition: 65.8%
Escherichia coli [3]
  inhibition: 48.5%
Pseudomonas aeruginosa [4]
  inhibition: 57.3%

## CCCCCCCCCC(=O)NC1CCCC1 [N-CYCLOPENTYLDECANAMIDE]
[5]
  IC50: 80 µM
[6]
  IC50: 90 µM

## Clc1ccc2c(NCCCCCCCCNCc3cc4ccccc4o3)ccnc2c1
[7]
  IC50: 25 µM
Pseudomonas aeruginosa [8]
  Activity: 40%
Pseudomonas aeruginosa [9]
  IC50: 50 µM
[10]
  IC50: 40 µM
Pseudomonas aeruginosa [11]
  Activity: 40%
[12]
  IC50: 12 µM

## O=C1C(Cl)=C(Cl)CN1CCc1ccc(O)cc1
Pseudomonas aeruginosa [13]
  inhibition: 74%
Pseudomonas aeruginosa [14]
  inhibition: 32.1%

## O=C(CSC(=S)N[C@H]1CCOC1=O)NC(=O)Nc1cccc2ccccc12
[15]
  inhibition: 71%
[16]
  inhibition: 38.9%
Pseudomonas aeruginosa [17]
  inhibition (INH): 35.3%
[18]
  inhibition: 33%
[19]
  inhibition: 47.9%
[20]
  inhibition: 20.8%
[21]
  inhibition: 14.3%
[22]
  inhibition: 55.5%
[23]
  inhibition: 67.7%
